{
  "source": "patent US20040266623A1",
  "about": "“SYNERGISTIC QUINCLORAC HERBICIDAL COMPOSITIONS” (priority 2003, published 2004)",
  "assay_in_all_cases": "Greenhouse pot test, postemergent spray, visual control rating converted to percent control",
  "format_in_all_cases": "in vivo",
  "key": {"[1]": {"tested_on": "crabgrass", "protocol": "(§1) Pots of crabgrass, dandelion, white clover, and plantain grown in greenhouse soiless growth media were sprayed with a greenhouse pot sprayer at 43.46 gallons of spray solution/acre and allowed to stand in the greenhouse. Visual observation of the effects made by the herbicidal compositions on the plants in the test pots was recorded for control of crabgrass, dandelion, clover and plantain at 24 hours after treatment (HAT), 48 hours after treatment (HAT), 72 hours after treatment (HAT), 7 days after treatment (DAT), 14 days after treatment (DAT) and 21 days after treatment (DAT). A control rating scale of 1 to 9 was used to record the visual observation of the effect of the herbicidal composition on the plants over the time period of the tests. 1=no control, and 9=death of plant, with intervening numbers representing successive degrees of observed effectiveness of the herbicidal composition over time. The 1-9 control rating scale was converted to percent control in the test data charts that follow.\n(§2) The test protocol of S. R. Colby as set out in his article entitled “Calculating Synergistic and Antagonistic Responses of Herbicide Compositions,” received for publication Apr. 11, 1966, Contribution No. 3796 and Scientific Article No. 1271 of the Maryland Agricultural Experiment Station, Department pf Agronomy, University of Maryland was followed to evaluate the synergistic properties of the combination of quinclorac plus a herbicidal protox inhibitor, and a combination of quinclorac, plus a herbicidal protox inhibitor plus a herbicidal auxinic agent as compared with the individual herbicides, using Colby's formulas E=X+Y−XY/100 for a two herbicide combination, where E=the expected percent of inhibition of growth by herbicides, X=the percent inhibition of growth by herbicide A at p lb/A, and Y=the percent inhibition of growth by herbicide B at q lb/A, for a given combination of two herbicides. Colby's formula E=X+Y+Z−(XY+XZ+YZ)/100+XYZ/10,000, was used for the three-way herbicide combination evaluation, where E, X and Y are the same as in the two herbicide formula and Z=the percent inhibition of growth by the third herbicide."}, "[2]": {"tested_on": "dandelion", "protocol": "as §1, §2"}, "[3]": {"tested_on": "plantain", "protocol": "as §1, §2"}, "[4]": {"tested_on": "white clover", "protocol": "as §1, §2"}, "[5]": {"conditions": "Test 3, 7 DAT, scale 1=no control, 9=death of plant"}, "[6]": {"conditions": "Test 3, 14 DAT, scale 1=no control, 9=death of plant"}, "[7]": {"conditions": "Test 3, 21 DAT, scale 1=no control, 9=death of plant"}, "[8]": {"conditions": "Test 3, 24 HAT, scale 1=no control, 9=death of plant"}, "[9]": {"conditions": "Test 3, 72 HAT, scale 1=no control, 9=death of plant"}, "[10]": {"conditions": "Test 4, 24 HAT, scale 1=no control, 9=death of plant"}, "[11]": {"conditions": "Test 4, 72 HAT, scale 1=no control, 9=death of plant"}},
  "data": [
    {"smiles": "O=C(O)c1c(Cl)ccc2cc(Cl)cnc12", "note": "[Quinclorac @ 0.75 lbs/A]", "values": [
      {"measurement": "% Control Crabgrass", "setting": "[1]; Test 3, 7 DAT", "value": 22.2, "unit": "%"},
      {"measurement": "Control (1-9) Crabgrass", "setting": "[1]; [5]", "value": 2},
      {"measurement": "% Control Crabgrass", "setting": "[1]; Test 3, 14 DAT", "value": 66.7, "unit": "%"},
      {"measurement": "Control (1-9) Crabgrass", "setting": "[1]; [6]", "value": 6},
      {"measurement": "% Control Crabgrass", "setting": "[1]; Test 3, 21 DAT", "value": 77.8, "unit": "%"},
      {"measurement": "Control (1-9) Crabgrass", "setting": "[1]; [7]", "value": 7},
      {"measurement": "% Control Crabgrass", "setting": "[1]; Test 3, 24 HAT", "value": 11.1, "unit": "%"},
      {"measurement": "Control (1-9) Crabgrass", "setting": "[1]; [8]", "value": 1},
      {"measurement": "% Control Crabgrass", "setting": "[1]; Test 3, 72 HAT", "value": 22.2, "unit": "%"},
      {"measurement": "Control (1-9) Crabgrass", "setting": "[1]; [9]", "value": 2},
      {"measurement": "% Control Crabgrass", "setting": "[1]; Test 4, 24 HAT", "value": 11.1, "unit": "%"},
      {"measurement": "Control (1-9) Crabgrass", "setting": "[1]; [10]", "value": 1},
      {"measurement": "% Control Crabgrass", "setting": "[1]; Test 4, 72 HAT", "value": 22.2, "unit": "%"},
      {"measurement": "Control (1-9) Crabgrass", "setting": "[1]; [11]", "value": 2},
      {"measurement": "% Control Dandelion", "setting": "[2]; Test 3, 7 DAT", "value": 22.2, "unit": "%"},
      {"measurement": "Control (1-9) Dandelion", "setting": "[2]; [5]", "value": 2},
      {"measurement": "% Control Dandelion", "setting": "[2]; Test 3, 14 DAT", "value": 44.4, "unit": "%"},
      {"measurement": "Control (1-9) Dandelion", "setting": "[2]; [6]", "value": 4},
      {"measurement": "% Control Dandelion", "setting": "[2]; Test 3, 21 DAT", "value": 33.3, "unit": "%"},
      {"measurement": "Control (1-9) Dandelion", "setting": "[2]; [7]", "value": 3},
      {"measurement": "% Control Dandelion", "setting": "[2]; Test 3, 24 HAT", "value": 11.1, "unit": "%"},
      {"measurement": "Control (1-9) Dandelion", "setting": "[2]; [8]", "value": 1},
      {"measurement": "% Control Dandelion", "setting": "[2]; Test 3, 72 HAT", "value": 22.2, "unit": "%"},
      {"measurement": "Control (1-9) Dandelion", "setting": "[2]; [9]", "value": 2},
      {"measurement": "% Control Dandelion", "setting": "[2]; Test 4, 24 HAT", "value": 11.1, "unit": "%"},
      {"measurement": "Control (1-9) Dandelion", "setting": "[2]; [10]", "value": 1},
      {"measurement": "% Control Dandelion", "setting": "[2]; Test 4, 72 HAT", "value": 22.2, "unit": "%"},
      {"measurement": "Control (1-9) Dandelion", "setting": "[2]; [11]", "value": 2},
      {"measurement": "% Control Plantain", "setting": "[3]; Test 3, 7 DAT", "value": 33.3, "unit": "%"},
      {"measurement": "Control (1-9) Plantain", "setting": "[3]; [5]", "value": 3},
      {"measurement": "% Control Plantain", "setting": "[3]; Test 3, 14 DAT", "value": 55.6, "unit": "%"},
      {"measurement": "Control (1-9) Plantain", "setting": "[3]; [6]", "value": 5},
      {"measurement": "% Control Plantain", "setting": "[3]; Test 3, 21 DAT", "value": 55.6, "unit": "%"},
      {"measurement": "Control (1-9) Plantain", "setting": "[3]; [7]", "value": 5},
      {"measurement": "% Control Plantain", "setting": "[3]; Test 3, 24 HAT", "value": 11.1, "unit": "%"},
      {"measurement": "Control (1-9) Plantain", "setting": "[3]; [8]", "value": 1},
      {"measurement": "% Control Plantain", "setting": "[3]; Test 3, 72 HAT", "value": 22.2, "unit": "%"},
      {"measurement": "Control (1-9) Plantain", "setting": "[3]; [9]", "value": 2},
      {"measurement": "% Control Plantain", "setting": "[3]; Test 4, 24 HAT", "value": 11.1, "unit": "%"},
      {"measurement": "Control (1-9) Plantain", "setting": "[3]; [10]", "value": 1},
      {"measurement": "% Control Plantain", "setting": "[3]; Test 4, 72 HAT", "value": 33.3, "unit": "%"},
      {"measurement": "Control (1-9) Plantain", "setting": "[3]; [11]", "value": 3},
      {"measurement": "% Control Clover", "setting": "[4]; Test 3, 7 DAT", "value": 44.4, "unit": "%"},
      {"measurement": "Control (1-9) Clover", "setting": "[4]; [5]", "value": 4},
      {"measurement": "% Control Clover", "setting": "[4]; Test 3, 14 DAT", "value": 55.6, "unit": "%"},
      {"measurement": "Control (1-9) Clover", "setting": "[4]; [6]", "value": 5},
      {"measurement": "% Control Clover", "setting": "[4]; Test 3, 21 DAT", "value": 88.9, "unit": "%"},
      {"measurement": "Control (1-9) Clover", "setting": "[4]; [7]", "value": 8},
      {"measurement": "% Control Clover", "setting": "[4]; Test 3, 24 HAT", "value": 11.1, "unit": "%"},
      {"measurement": "Control (1-9) Clover", "setting": "[4]; [8]", "value": 1},
      {"measurement": "% Control Clover", "setting": "[4]; Test 3, 72 HAT", "value": 22.2, "unit": "%"},
      {"measurement": "Control (1-9) Clover", "setting": "[4]; [9]", "value": 2},
      {"measurement": "% Control Clover", "setting": "[4]; Test 4, 24 HAT", "value": 11.1, "unit": "%"},
      {"measurement": "Control (1-9) Clover", "setting": "[4]; [10]", "value": 1},
      {"measurement": "% Control Clover", "setting": "[4]; Test 4, 72 HAT", "value": 22.2, "unit": "%"},
      {"measurement": "Control (1-9) Clover", "setting": "[4]; [11]", "value": 2}
    ]},
    {"smiles": "Cc1cc(Cl)ccc1OCC(=O)OCCCCCC(C)C", "note": "[MCPA IOE]", "values": [
      {"measurement": "% Control Crabgrass", "setting": "[1]; Test 4, 7 DAT, 1.10 lbs/A", "value": 11.1, "unit": "%"},
      {"measurement": "Control (1-9) Crabgrass", "setting": "[1]; Test 4, 7 DAT, 1.10 lbs/A", "value": 1},
      {"measurement": "% Control Crabgrass", "setting": "[1]; Test 4, 14 DAT, 1.10 lbs/A", "value": 11.1, "unit": "%"},
      {"measurement": "Control (1-9) Crabgrass", "setting": "[1]; Test 4, 14 DAT, 1.10 lbs/A", "value": 1},
      {"measurement": "% Control Dandelion", "setting": "[2]; Test 4, 7 DAT, 1.10 lbs/A", "value": 44.4, "unit": "%"},
      {"measurement": "Control (1-9) Dandelion", "setting": "[2]; Test 4, 7 DAT, 1.10 lbs/A", "value": 4},
      {"measurement": "% Control Dandelion", "setting": "[2]; Test 4, 14 DAT, 1.10 lbs/A", "value": 55.6, "unit": "%"},
      {"measurement": "Control (1-9) Dandelion", "setting": "[2]; Test 4, 14 DAT, 1.10 lbs/A", "value": 5},
      {"measurement": "% Control Plantain", "setting": "[3]; Test 4, 7 DAT, 1.10 lbs/A", "value": 66.7, "unit": "%"},
      {"measurement": "Control (1-9) Plantain", "setting": "[3]; Test 4, 7 DAT, 1.10 lbs/A", "value": 6},
      {"measurement": "% Control Plantain", "setting": "[3]; Test 4, 14 DAT, 1.10 lbs/A", "value": 66.7, "unit": "%"},
      {"measurement": "Control (1-9) Plantain", "setting": "[3]; Test 4, 14 DAT, 1.10 lbs/A", "value": 6},
      {"measurement": "% Control Clover", "setting": "[4]; Test 4, 7 DAT, 1.10 lbs/A", "value": 66.7, "unit": "%"},
      {"measurement": "Control (1-9) Clover", "setting": "[4]; Test 4, 7 DAT, 1.10 lbs/A", "value": 6},
      {"measurement": "% Control Clover", "setting": "[4]; Test 4, 14 DAT, 1.10 lbs/A", "value": 100.0, "unit": "%"},
      {"measurement": "Control (1-9) Clover", "setting": "[4]; Test 4, 14 DAT, 1.10 lbs/A", "value": 9}
    ]}
  ]
}
